The target of this test is Macrophage colony-stimulating factor 1 receptor (Homo sapiens) (UniProt P07333). Description: CSF1R kinase inhibitors, dose response, biochemical, Z'-LYTE, FRET, protease-coupled, direct format (AID 1671241). To be noted: Z'-LYTE FRET kinase assay.
Chain of Macrophage colony-stimulating factor 1 receptor (Homo sapiens) (P07333 whole entry, looked up): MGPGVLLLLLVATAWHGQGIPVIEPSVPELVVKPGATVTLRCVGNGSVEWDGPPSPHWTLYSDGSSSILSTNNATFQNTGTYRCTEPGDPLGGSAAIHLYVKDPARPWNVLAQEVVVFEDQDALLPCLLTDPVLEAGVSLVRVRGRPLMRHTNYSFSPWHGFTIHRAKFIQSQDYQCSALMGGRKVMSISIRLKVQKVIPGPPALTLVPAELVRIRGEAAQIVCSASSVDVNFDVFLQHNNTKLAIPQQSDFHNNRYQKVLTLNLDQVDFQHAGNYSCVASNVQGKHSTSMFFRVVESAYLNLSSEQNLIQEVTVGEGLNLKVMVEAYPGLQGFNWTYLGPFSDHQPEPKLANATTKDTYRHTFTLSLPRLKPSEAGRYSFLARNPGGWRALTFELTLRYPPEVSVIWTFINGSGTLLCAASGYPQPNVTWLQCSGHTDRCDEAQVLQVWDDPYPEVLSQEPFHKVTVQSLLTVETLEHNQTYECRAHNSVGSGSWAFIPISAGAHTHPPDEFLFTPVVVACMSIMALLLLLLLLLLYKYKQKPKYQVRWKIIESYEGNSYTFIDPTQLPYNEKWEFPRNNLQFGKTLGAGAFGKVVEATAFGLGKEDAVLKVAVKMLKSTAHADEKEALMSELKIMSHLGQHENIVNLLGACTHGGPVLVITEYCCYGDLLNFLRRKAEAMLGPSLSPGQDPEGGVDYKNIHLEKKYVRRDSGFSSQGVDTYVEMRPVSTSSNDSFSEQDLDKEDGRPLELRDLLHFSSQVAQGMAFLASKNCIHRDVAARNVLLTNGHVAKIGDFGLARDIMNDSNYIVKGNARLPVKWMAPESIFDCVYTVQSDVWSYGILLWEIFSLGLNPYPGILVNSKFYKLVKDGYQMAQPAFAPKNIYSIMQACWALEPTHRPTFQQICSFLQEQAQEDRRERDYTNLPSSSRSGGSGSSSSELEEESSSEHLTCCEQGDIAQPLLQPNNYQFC

With `COc1cc2ncnc(Nc3cccc(Cl)c3)c2cc1OC`, the 50% inhibitory concentration (IC50) is 6.02 µM.

The IC50 is the point on the concentration scale where inhibition reaches its midpoint.

The values are drawn from PubChem BioAssay AID1671241.
